Measurements taken from US9358226B2, “Triarylmethane analogs and their use in treating cancers” (Emory University, priority 2007, dated 2016).

What was measured:
[1] = tested on: P. falciparum D6 (Chloroquine Sensitive); test: Malaria model, chloroquine sensitive P. falciparum; format: cell-based; settings: Plasmodium falciparum, D6; read-out: IC50 (nM) vs P. falciparum D6 (Chloroquine Sensitive)
Method: (§1) The compounds were tested in a malaria model using both chloroquine sensitive and multidrug resistant P. falciparum. The malaria model was the same as published in JAC Advance Access published online on Jul. 30, 2008, Journal of Antimicrobial Chemotherapy, doi:10.1093/jac/dkn315, the contents of which are hereby incorporated by reference, and the data is summarized in the table below.
(§2) Briefly, the assay involves exposing both chloroquine sensitive and multidrug resistant P. falciparum to the compounds. After one hour of exposure to the highest concentration of the compound, followed by removal of the compound, the growth of all stages of P. falciparum was observed. The reduction in the growth stages was then compared with untreated control parasites. […] The presence of strong inhibition (defined herein as 10% growth) of all parasite stages was evaluated when the parasites were exposed to various concentrations of various compounds.

[2] = tested on: bloodstream form of T. brucei; test: Bloodstream form of T. brucei, live cells, overnight treatment; format: cell-based
Method: These and other compounds were tested on live cells.
The experiment was conducted with one million cells of the bloodstream form of T. brucei. After over night treatment with different compounds (at concentrations of 50 and 100 μmolar), cells were counted and plotted with controls.

[3] = biological target: T1, Nox2 (Homo sapiens, UniProt P04839); test: H2O2 production, homovanillic acid assay, Cos-phox cells; format: cell-based; settings: phorbol 12-myristate 13-acetate stimulated, 1 hour 37° C.
T1 construct: expressed in transfected cells; host or cells: COS-phox cells
T1 sequence (P04839 2-570 limits assumed): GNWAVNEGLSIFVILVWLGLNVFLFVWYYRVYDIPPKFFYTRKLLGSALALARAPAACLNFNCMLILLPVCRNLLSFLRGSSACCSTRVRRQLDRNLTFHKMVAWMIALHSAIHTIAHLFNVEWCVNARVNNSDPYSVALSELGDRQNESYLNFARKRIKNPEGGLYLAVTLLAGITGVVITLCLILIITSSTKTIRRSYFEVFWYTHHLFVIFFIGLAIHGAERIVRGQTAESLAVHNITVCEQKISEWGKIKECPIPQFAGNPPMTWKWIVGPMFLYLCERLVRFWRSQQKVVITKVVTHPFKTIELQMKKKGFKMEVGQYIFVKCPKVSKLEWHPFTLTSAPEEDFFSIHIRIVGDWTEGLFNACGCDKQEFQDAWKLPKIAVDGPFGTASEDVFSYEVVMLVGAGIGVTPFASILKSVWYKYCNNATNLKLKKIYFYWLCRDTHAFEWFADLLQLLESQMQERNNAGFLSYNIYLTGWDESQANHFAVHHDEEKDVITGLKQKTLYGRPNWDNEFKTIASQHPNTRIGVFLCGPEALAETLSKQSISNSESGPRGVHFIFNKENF
T1 sequence (P13498 2-195 partner limits assumed): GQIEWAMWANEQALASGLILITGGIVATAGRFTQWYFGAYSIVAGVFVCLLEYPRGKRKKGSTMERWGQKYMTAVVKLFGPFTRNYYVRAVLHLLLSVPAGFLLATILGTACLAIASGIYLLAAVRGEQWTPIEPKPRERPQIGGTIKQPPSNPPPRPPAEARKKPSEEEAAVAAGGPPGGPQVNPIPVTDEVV
Method: After 1 hour incubation at 37° C., the reaction was stopped and H2O2 production was measured using the homovanillic acid assay. The ability of these drugs to inhibit production of H2O2 is shown as a percentage relative to the untreated control (100%). […] Optimal Nox2 activity requires phorbol 12-myristate 13-acetate stimulation whereas Nox4 activity is constitutive.
H2O2 release was measured using the homovanillic acid assay as described previously (Martyn, 2006). Briefly, 1.5-1.75×10^5 cells/well of a 12-well plate were seeded. The following day, cells were washed once with Hank's balanced salt solution and then preincubated for 15 minutes with either gentian violet (10-20 nM) or brilliant green (0.5-1.0 μM) in 1 ml of media. The cells were then washed once with Hank's balanced salt solution. Gentian violet or brilliant green was added at the same concentrations as in pretreatment to 0.5 ml of homovanillic acid assay solution (100 μM homovanillic acid assay, 4 U/ml horseradish peroxidase in Hank's balanced salt solution with Ca^2+ and Mg^2+) and incubated with the cells for 1 hour at 37° C. Cos-phox cells were additionally stimulated with 0.4 μg/ml phorbol 12-myristate 13-acetate. […] Fluorescence was read on a BioTek Synergy HT (BioTek Instruments Inc., Winooski, Vermont, […].) with an excitation of 320 nm and emission of 440 nm.

[4] = tested on: P. falciparum Dd2 (Multidrug Resistant); test: Malaria model, multidrug resistant P. falciparum; format: cell-based; settings: Plasmodium falciparum, DD2; read-out: IC50 (nM) vs P. falciparum Dd2 (Multidrug Resistant)
Method: as §1, §2

[5] = tested on: bEnd.3 hemangiomas; test: bEnd.3 hemangioma in vivo, intralesional treatment
Method: In order to determine if compounds that inhibit ang-2 formation in vitro would ameliorate hemangioma formation in vivo, we injected one million bEnd.3 cells subcutaneously into nine nude mice.
For each treatment condition, three mice were injected with 1,000,000 bEnd.3 cells and received intralesional injection with either vehicle control, brilliant green or gentian viol et (from left to right in photo) on days 9 and 14. Animals were euthanized on day 20, secondary to tumor burden in the control animals.
For each treatment condition, three mice were subcutaneously injected with one million bEnd.3 cells and monitored for tumor development. On day 9, tumors were measured in all nine animals, and there was no significant difference in tumor volume before the initiation of treatment. Each mouse then received intralesional injection with either 0.33 ml vehicle control, brilliant green (5 mg/kg, dissolved in […] ethanol and 900 μl intralipid) or gentian violet (5 mg/kg, dissolved in 100 μl ethanol and 900 μl intralipid) on days 9 and 14. No toxicity was noted following injection. Animals were euthanized on day 20, secondary to tumor burden in the control animals. Photos represent average tumor burden in each of the three groups (FIG. 3a), and tumor volume (mm^3) is graphically depicted (FIG. 3b). Error bars represent the standard error of the mean.

IC50 [1]: 12.1 nM | inhibition of Nox2 activity (H2O2 production) [3]: inhibited | IC50 [4]: 0.44 nM
Compound: CN(C)c1ccc(C(=C2C=CC(=[N+](C)C)C=C2)c2ccc(N(C)C)cc2)cc1 [Gentian Violet (GV), hexamethyl pararosaniline chloride]
IC50 ([2]; Trypanosoma brucei, bloodstream form of T. brucei): < 20 nM | cell survival after over night treatment ([2]; one million cells, 50 and 100 μmolar): All cells died | decrease in tumor size compared to control ([5]; 5 mg/kg intralesional on days 9 and 14, euthanized day 20): 92.6% | toxicity as a result of treatment ([5]; mouse, in vivo, 5 mg/kg): Neither local nor systemic toxicity was observed
